Experiments:
Mus musculus [1] = assay: Induction of sedation-hypnotic activity in Mus musculus Albino Swiss (mouse) assessed as reduction in locomotor activity at 5 mg/kg, po measured after 3 hr by actophotometer; type: organism-based; parameters: dose 5 mg/kg, route oral; scale not given: the % may be the effect or the level left; conditions: in vivo
Mus musculus [2] = assay: Induction of sedation-hypnotic activity in Mus musculus Albino Swiss (mouse) assessed as reduction in locomotor activity at 5 mg/kg, po measured after 1 hr by actophotometer; type: organism-based; parameters: dose 5 mg/kg, route oral; scale not given: the % may be the effect or the level left; conditions: in vivo
Cavia porcellus [3] = assay: In vivo H1-antihistaminic activity in Cavia porcellus Dunkin-Hartley (guinea pig) assessed as time of onset of convulsion at 10 mg/kg, po; type: functional
Mus musculus [4] = assay: Induction of sedation-hypnotic activity in Mus musculus Albino Swiss (mouse) assessed as reduction in locomotor activity at 5 mg/kg, po measured after 2 hr by actophotometer; type: organism-based; parameters: dose 5 mg/kg, route oral; scale not given: the % may be the effect or the level left; conditions: in vivo
Mus musculus [5] = assay: Induction of sedation-hypnotic activity in Mus musculus Albino Swiss (mouse) assessed as reduction in locomotor activity at 5 mg/kg, po measured after 0.5 hr by actophotometer; type: organism-based; parameters: dose 5 mg/kg, route oral; scale not given: the % may be the effect or the level left; conditions: in vivo
Cavia porcellus [6] = assay: In vivo H1-antihistaminic activity in conscious Cavia porcellus Dunkin-Hartley (guinea pig) assessed as protection against histamine-induced bronchospasm at 10 mg/kg, po; type: functional
Cavia porcellus [7] = assay: In vivo H1-antihistaminic activity in Cavia porcellus Dunkin-Hartley (guinea pig) assessed as time of onset of convulsion at 25 mg/kg, ip; type: functional; conditions: route intraperitoneal
Cavia porcellus [8] = assay: In vivo H1-antihistaminic activity in conscious Cavia porcellus Dunkin-Hartley (guinea pig) assessed as protection against histamine-induced bronchospasm at 25 mg/kg, ip; type: functional; conditions: route intraperitoneal

| SMILES | Activity (Mus musculus [1]) | Activity (Mus musculus [2]) | Time (Cavia porcellus [3]) | Activity (Mus musculus [4]) | Activity (Mus musculus [5]) | Activity (Cavia porcellus [6]) | Time (Cavia porcellus [7]) | Activity (Cavia porcellus [8]) |
| --- | --- | --- | --- | --- | --- | --- | --- | --- |
| O=c1c2ccccc2nc(-c2ccccc2)n1NCCNc1ccccc1 | 10.11% | 11.55% | 402 s | 12.32% | 11.32% | 71.64% | – | – |
| O=c1c2ccccc2nc(-c2ccccc2)n1NCCNc1ccc(Cl)cc1 | 6.48% | 9.42% | 416 s | 10.73% | 8.28% | 72.12% | – | – |
| O=c1c2ccccc2nc(-c2ccccc2)n1NCCN1CCNCC1 | 8.21% | 10.42% | 433 s | 10.79% | 9.35% | 73.67% | – | – |
| O=c1c2ccccc2nc(-c2ccccc2)n1NCCNCc1ccccc1 | 8.9% | 11.52% | 366 s | 12.31% | 10.42% | 68.85% | – | – |
| O=c1c2ccccc2nc(-c2ccccc2)n1NCCN1CCOCC1 | 7.32% | 9.32% | 428 s | 10.41% | 8.43% | 73.36% | – | – |
| COc1ccc(NCCNn2c(-c3ccccc3)nc3ccccc3c2=O)cc1 | 8.53% | 10.43% | 398 s | 10.94% | 9.03% | 71.35% | – | – |
| O=c1c2ccccc2nc(-c2ccccc2)n1NCCNc1nccs1 | 7.43% | 9.52% | 409 s | 9.85% | 8.21% | 72.12% | – | – |
| Cc1ccccc1NCCNn1c(-c2ccccc2)nc2ccccc2c1=O | 7.13% | 9.88% | 375 s | 10.38% | 9.42% | 69.6% | – | – |
| COc1cccc(NCCNn2c(-c3ccccc3)nc3ccccc3c2=O)c1 | 9.32% | 10.89% | 382 s | 11.63% | 10.35% | 70.15% | – | – |
| O=c1c2ccccc2nc(-c2ccccc2)n1NCCNc1ccc([N+](=O)[O-])cc1 | 8.32% | 9.98% | 394 s | 11.04% | 9.51% | 71.06% | – | – |
| CN(C)CCC(c1ccc(Cl)cc1)c1ccccn1.O=C(O)/C=C\C(=O)O (stereo unspecified) [CHLORPHENIRAMINE MALEATE] | 29.58% | 38.8% | – | 34.8% | 32.04% | – | 394 s | 70.09% |

— ChEMBL document CHEMBL3046520, “Synthesis of novel 2-phenyl-3-[2-(substituted amino) ethylamino] quinazolin-4(3H)-ones as a new class of H1-antihistaminic agents” (Med Chem Res, 2013)
